# Tests used:
# [1] = test system: normal human dermal fibroblasts (ring-shaped tissue constructs); assay: Tensile mechanical testing to failure of ring-shaped tissue constructs; format: cell-based
# Protocol: (§1) Cell Source and Culture Conditions: Juvenile normal human dermal fibroblasts (jNHDF) were purchased from PromoCell (Heidelberg, Germany). Cells were expanded in Dulbecco's Modified Eagle's medium (DMEM) with high glucose, 1-glutamine, phenol red, and sodium pyruvate (11995065, Thermo Fisher Scientific, Waltham, MA) supplemented with 10% FBS and 1% penicillin/streptomycin at 10% CO2 and 37° C. Cells were passaged (P3-8) and expanded using a standard trypsin protocol. Cells were rinsed with 1× PBS (SH30256.FS, Thomas Scientific, Swedesboro, NJ), exposed to 0.05% trypsin in PBS for 4 min, quenched with serum containing media, centrifuged at 220g for 3 min, resuspended, counted, and plated at a density of 3.5-7.0×10^3 cells per cm^2. Ring-shaped tissue constructs (5 mm) were seeded at 3×10^5 cells per well in 1 mL of media exchanged every 2/3 days unless otherwise noted. For media composition experiments, tissues were cultured in serum-free DMEM supplemented with 0.1 mm 2-phospho-l-ascorbic acid trisodium salt (SigmaAldrich, St. Louis, MO), 50.0 μg mL^−1 I-proline (Thermo Fisher), 1% penicillin/streptomycin (SFM+), advanced DMEM (12491015) supplemented with 4 mm GlutaMax and 1% penicillin/streptomycin (SFMA), or a 50:50 mixture of the two (50:50 SFM+/SFMA).
# Fabrication of Ring-Shaped Tissue Constructs: Ring-shaped molds were designed usingCADsoftware (SolidWorks Corporation, Concord, MA) and fabricated from stainless steel 316 L on a CNC lathe (Protolabs, Maple Plain, MN). The stainless steel parts were designed to fit into a single well of a standard 24 well plate. Ring-shaped agarose gels were cast by placing the stainless steel part into a well filled with 1.5 mL of molten, sterile 2% (w/v) agarose (BP160-500, Fisher Scientific, Hampton, NH) in 1× PBS, allowed to harden for 15 min, and removed. […] A lid mirroring a standard 24 well plate lid was fabricated out of aluminum with through holes above each well to permit the placement of all 24 stainless steel parts simultaneously. Gels were equilibrated in serum-free DMEM with 1% penicillin/streptomycin at 37° C., 10% CO2 for at least 24 h before use.
# Drug Treatment: For all dose-response experiments, ring constructs were allowed to form for 24 h prior to treatment. FBS (12483020, Life Technologies, Carlsbad, CA), Y-27632 (S1049, Selleck Chemicals, Houston, TX), TGF-β1 (7754-BH-25, […]), and SB-431542 (S1067, Selleck Chemicals) doses were freshly prepared from frozen aliquots and resuspended in 50:50 SFM+/SFMA medium prior to feeding 3× per week. Doses of FBS were prepared at 10%, 1.0%, and 0.1% [v/v] concentrations with a 0% control. Y-27632 and SB-431542 were reconstituted in dimethyl sulfoxide (DMSO) and resuspended at a final concentration of 10, 1.0, 0.1, and a 0 μm vehicle control with a DMSO final volume always less than 0.1%. TGF-β1 was reconstituted in 0.1% bovine serum albumin (BSA) in 4 mm HCl (RB04, […]) and prepared at a final concentration of 10, 2, 0.4, and 0 ng mL^−1 vehicle control.
# Mechanical Testing: Ring-shaped microtissues were mechanically tested using custom designed grippers on a uniaxial tensile testing setup (Instron 5943, Norwood, MA) equipped with a 5N (5 mn resolution) load cell. Agarose molds were trimmed with a razor blade and top and sideview brightfield images were obtained on a Nikon Eclipse Ts2 microscope (Nikon, Tokyo, Japan) to determine the initial elliptical cross-sectional area (A0). Just prior to testing, tissue constructs were gently removed from the agarose mold using forceps and mounted between grippers which consisted of two horizontal cylindrical segments with a circular diameter of 3 mm fabricated from glass filled nylon (PA614-GS, ProtoLabs). Tissues were brought to a 5 mm initial grip-to-grip distance and tests were performed in PBS at 37° C. […]
# [2] = test system: normal human dermal fibroblasts (ring-shaped tissue constructs); assay: Collagen quantification (pepsin-acid soluble collagen, sircol dye binding assay) of ring-shaped tissue constructs; format: cell-based; conditions: for effect on collagen content: p>0.05
# Protocol: as §1
# Drug Treatment: For all dose-response experiments, ring constructs were allowed to form for 24 h prior to treatment. […]
# Collagen Quantification: Tissues were homogenized with 2 mm glass beads for 2/3 min and solubilized in 0.1 mg mL^−1 pepsin in 0.5 m acetic acid at 4° C. for 48 h. Total pepsin-acid soluble collagen was quantified via sircol dye binding assay per kit instructions (S5000, Biocolor, United Kingdom). Absorbance was measured at 525 nm and collagen content was determined from a standard curve and adjusted to microgram equivalent of native pepsin-acid soluble collagen.
# actomyosin network = conditions: disruption of the actomyosin network; cited from earlier work
# [3] = highest inhibitory concentration (10.0 μM) in 50:50 media, day 7 and 14, p<0.05
# [4] = 0.1, 1.0, 10.0 μM in 50:50 media from 24 h after seeding, 7 or 14 days, p>0.05
# [5] = 10 ng mL^−1 TGF-β1 versus 10 μm SB431542, day 7
molecule,measurement,setting,value
NC(=O)c1ccc(-c2nc(-c3ccc4c(c3)OCO4)c(-c3ccccn3)[nH]2)cc1 [SB-431542],effect on tissue stiffness,[1]; [3],weakest stiffness and strength
same,effect on tissue strength,[1]; [3],weakest stiffness and strength
same,effect on collagen content,"[2]; 0.1, 1.0, 10.0 μM in 50:50 media, any dose or time point",no effect
Cc1ccc2c(c1)C(=O)C1(O)CCN(c3ccccc3)C1=N2 (stereo not drawn) [blebbistatin],effect on development of mechanical properties,actomyosin network,halts the development of mechanical properties
C[C@@H](N)[C@H]1CC[C@H](C(=O)Nc2ccncc2)CC1 [Y-27632],effect on tissue stiffness,[1]; [4],did not significantly affect
same,effect on tissue strength,[1]; [4],did not significantly affect
same,effect on collagen content,"[2]; 0.1, 1.0, 10.0 μM in 50:50 media from 24 h after seeding, 7 or 14 days",did not significantly affect
TGF-β1: pleiotropic growth factor and proposed master mediator of fibrotic disorders,"increase in tissue stiffness, TGF-β1 stimulation versus inhibition with SB431542",[1]; [5],4.8 fold
same,"increase in tissue strength, TGF-β1 stimulation versus inhibition with SB431542",[1]; [5],6.5 fold
same,effect on tissue mechanics (stiffness and strength),"[1]; 0.4, 2.0, 10 ng mL^−1 in 50:50 media, day 7 and 14, p<0.05",increased tissue mechanics in a significant dose-dependent manner
same,change in collagen content,"[2]; 0.4, 2.0, 10 ng mL^−1 in 50:50 media, day 7 and 14",not a concomitant change
cytochalasin,effect on development of mechanical properties,actomyosin network,halts the development of mechanical properties

# Source: patent publication US12435312B2, “Quantifying cell-derived changes in collagen synthesis, alignment, and mechanics in a 3D connective tissue model” (Brown University, priority 2022, dated 2025)
